19 compounds from patent publication US10435399B2, “HDAC6 inhibitory heterocyclic compound” (TAKEDA PHARMACEUTICAL COMPANY LIMITED, priority 2017, dated 2019) can be followed below.

For the experiment, the target named is T1, HDAC6 enzyme (Homo sapiens, UniProt Q9UBN7).
T1 construct: transducing full length HDAC6 gene into Sf-9 insect cells; GST; purchased SignalChem; host or cells: Sf-9 insect cells
T1 sequence (Q9UBN7 1-1215): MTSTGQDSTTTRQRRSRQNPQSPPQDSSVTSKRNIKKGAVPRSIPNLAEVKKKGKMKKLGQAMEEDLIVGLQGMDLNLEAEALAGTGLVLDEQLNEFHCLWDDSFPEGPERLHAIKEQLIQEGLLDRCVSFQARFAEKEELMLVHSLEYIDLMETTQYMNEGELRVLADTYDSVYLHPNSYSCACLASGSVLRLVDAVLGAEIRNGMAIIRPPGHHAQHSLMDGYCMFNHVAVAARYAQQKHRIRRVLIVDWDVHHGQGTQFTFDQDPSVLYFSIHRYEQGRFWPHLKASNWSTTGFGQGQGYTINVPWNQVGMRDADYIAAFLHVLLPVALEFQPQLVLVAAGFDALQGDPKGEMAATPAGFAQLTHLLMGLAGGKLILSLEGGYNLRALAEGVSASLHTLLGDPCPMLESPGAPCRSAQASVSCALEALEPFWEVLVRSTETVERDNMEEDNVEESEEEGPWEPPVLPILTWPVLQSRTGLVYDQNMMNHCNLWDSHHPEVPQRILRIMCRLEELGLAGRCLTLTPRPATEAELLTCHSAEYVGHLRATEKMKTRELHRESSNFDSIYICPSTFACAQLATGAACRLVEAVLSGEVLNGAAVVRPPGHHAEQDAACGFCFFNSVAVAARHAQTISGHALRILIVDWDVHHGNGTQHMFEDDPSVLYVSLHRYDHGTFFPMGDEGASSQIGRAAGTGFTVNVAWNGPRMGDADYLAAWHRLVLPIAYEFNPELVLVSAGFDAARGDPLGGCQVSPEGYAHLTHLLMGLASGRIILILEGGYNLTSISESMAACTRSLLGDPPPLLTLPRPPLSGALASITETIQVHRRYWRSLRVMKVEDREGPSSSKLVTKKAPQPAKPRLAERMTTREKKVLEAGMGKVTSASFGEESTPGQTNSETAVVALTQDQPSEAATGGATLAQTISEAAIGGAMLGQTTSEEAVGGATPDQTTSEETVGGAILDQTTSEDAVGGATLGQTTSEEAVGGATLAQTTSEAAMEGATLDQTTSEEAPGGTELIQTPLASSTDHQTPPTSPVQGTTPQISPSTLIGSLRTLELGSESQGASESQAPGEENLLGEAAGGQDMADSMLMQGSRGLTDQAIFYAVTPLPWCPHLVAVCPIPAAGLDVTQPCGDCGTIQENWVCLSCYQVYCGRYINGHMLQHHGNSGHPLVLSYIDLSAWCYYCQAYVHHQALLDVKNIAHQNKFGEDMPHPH
The experiment is described as follows: HDAC6 enzyme inhibitory activity (HDAC-Glo I/II Assay kit). Format: biochemical. As to conditions: 10 μM, wells without enzyme = 100% inhibition; for inhibition at 10 µM: read-out: HDAC6 inhibitory rate (%) (10 μM). A digest of the protocol:
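Full-length human HDAC6 (GST-purified, Sf-9 expressed) preincubated with compound 60 min at room temperature in Tris-HCl pH 7.5 buffer with MgCl2, KCl, NaCl, glutathione, Tween-20. HDAC-Glo I/II substrate-developer then added, 20 min room temperature, luminescence read. Inhibition relative to no-enzyme wells as 100%.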

For the compound `Cc1ccc(C2CCCCN2N2Cc3ccc(-c4nnc(C(F)F)o4)cc3C2=O)cn1` (stereo not shown) [Example 630, 6-(5-(difluoromethyl)-1,3,4-oxadiazol-2-yl)-2-(2-(6-methylpyridin-3-yl)piperidin-1-yl)isoindolin-1-one], the inhibition at 10 µM is 100%.
`Cn1cc(C(C)(C)O)c(N2Cc3ccc(-c4nnc(C(F)F)o4)cc3C2=O)n1` [Example 631, 6-(5-(difluoromethyl)-1,3,4-oxadiazol-2-yl)-2-(4-(2-hydroxypropan-2-yl)-1-methyl-1H-pyraozl-3-yl)isoindolin-1-one]: the inhibition at 10 µM was 99%.
Still for that read-out and setting: then `O=C1c2cc(-c3nnc(C(F)F)o3)cnc2CN1[C@@H]1COCC[C@H]1Oc1ccc(F)cc1` [Example 632, 1,5-anhydro-2,4-dideoxy-2-(3-(5-(difluoromethyl)-1,3,4-oxadiazol-2-yl)-5-oxo-5,7-dihydro-6H-pyrrolo[3,4-b]pyridin-6-yl)-3-O-(4-fluorophenyl)-threo-pentitol], with 99%.
In the case of `O=C1c2cc(-c3nnc(C(F)F)o3)cnc2CN1[C@@H]1COCC[C@H]1Oc1ccc(F)cc1` [Example 633, 1,5-anhydro-2,4-dideoxy-2-(3-(5-(difluoromethyl)-1,3,4-oxadiazol-2-yl)-5-oxo-5,7-dihydro-6H-pyrrolo[3,4-b]pyridin-6-yl)-3-O-(4-fluorophenyl)-threo-pentitol (Optical Isomer)], the “HDAC6 inhibitory rate (%) (10 μM)” value is recorded as 100%.
Regarding `CC(C)(C)OC(=O)N[C@@H]1CCC(F)(F)C[C@H]1N1Cc2ccc(-c3nnc(C(F)F)o3)cc2C1=O` [Example 634, tert-butyl ((1R,2R)-2-(6-(5-(difluoromethyl)-1,3,4-oxadiazol-2-yl)-1-oxo-1,3-dihydro-2H-isoindol-2-yl)-4,4-difluorocyclohexyl)carbamate], the inhibition at 10 µM is 99%.
Same read-out and setting: then `O=C1c2cc(-c3nnc(C(F)F)o3)ccc2CN1[C@@H]1CC(F)(F)CC[C@H]1NC(=O)C(F)(F)C(F)(F)F` [Example 635, N-((1R,2R)-2-(6-(5-(difluoromethyl)-1,3,4-oxadiazol-2-yl)-1-oxo-1,3-dihydro-2H-isoindol-2-yl)-4,4-difluorocyclohexyl)-2,2,3,3,3-pentafluoropropanamide], with 99%; and `O=C1c2cc(-c3nnc(C(F)F)o3)ccc2CN1[C@@H]1CC(F)(F)CC[C@H]1NC(=O)C(F)(F)C(F)F` [Example 636, N-((1R,2R)-2-(6-(5-(difluoromethyl)-1,3,4-oxadiazol-2-yl)-1-oxo-1,3-dihydro-2H-isoindol-2-yl)-4,4-difluorocyclohexyl)-2,2,3,3-tetrafluoropropanamide], with 100%; and `CC(F)(F)C(=O)N[C@@H]1CCC(F)(F)C[C@H]1N1Cc2ccc(-c3nnc(C(F)F)o3)cc2C1=O` [Example 637, N-((1R,2R)-2-(6-(5-(difluoromethyl)-1,3,4-oxadiazol-2-yl)-1-oxo-1,3-dihydro-2H-isoindol-2-yl)-4,4-difluorocyclohexyl)-2,2-difluoropropanamide], with 100%.
The same measure, in the same setting: under `N[C@@H]1CCC(F)(F)C[C@H]1N1Cc2ncc(-c3nnc(C(F)F)o3)cc2C1=O` [Example 638, 6-((1R,2R)-2-amino-5,5-difluorocyclohexyl)-3-(5-(difluoromethyl)-1,3,4-oxadiazol-2-yl)-6,7-dihydro-5H-pyrrollo[3,4-b]pyridin-5-one] stands 93%.
The same measure, in the same setting: under `CC(F)(F)C(=O)N[C@@H]1CC(F)(F)CC[C@H]1N1Cc2ncc(-c3nnc(C(F)F)o3)cc2C1=O` [Example 639, N-((1R,2R)-2-(3-(5-(difluoromethyl)-1,3,4-oxadiazol-2-yl)-5-oxo-5,7-dihydro-6H-pyrrolo[3,4-b]pyridin-6-yl)-5,5-difluorocyclohexyl)-2,2-difluoropropanamide] stands 100%.
For the compound `O=C1c2cc(-c3nnc(C(F)F)o3)cnc2CN1[C@@H]1CCC(F)(F)C[C@H]1NC(=O)C(F)(F)C(F)(F)F` [Example 640, N-((1R,2R)-2-(3-(5-(difluoromethyl)-1,3,4-oxadiazol-2-yl)-5-oxo-5,7-dihydro-6H-pyrrolo[3,4-b]pyridin-6-yl)-5,5-difluorocyclohexyl)-2,2,3,3,3-pentafluoropropanamide], the inhibition at 10 µM was 100%.
On the same count and under the same terms, under `O=C1c2cc(-c3nnc(C(F)F)o3)cnc2CN1[C@@H]1CCC(F)(F)C[C@H]1NC(=O)C(F)(F)C(F)F` [Example 641, N-((1R,2R)-2-(3-(5-(difluoromethyl)-1,3,4-oxadiazol-2-yl)-5-oxo-5,7-dihydro-6H-pyrrolo[3,4-b]pyridin-6-yl)-5,5-difluorocyclohexyl)-2,2,3,3-tetrafluoropropanamide] stands 99%; under `O=C1c2cc(-c3nnc(C(F)F)o3)cnc2CN1[C@@H]1CC(F)(F)CC[C@H]1NC(=O)C(F)(F)C(F)(F)F` [Example 642, N-((1R,2R)-2-(3-(5-(difluoromethyl)-1,3,4-oxadiazol-2-yl)-5-oxo-5,7-dihydro-6H-pyrrolo[3,4-b]pyridin-6-yl)-4,4-difluorocyclohexyl)-2,2,3,3,3-pentafluoropropanamide], 100%; under `CC(F)(F)C(=O)N[C@@H]1CCC(F)(F)C[C@H]1N1Cc2ncc(-c3nnc(C(F)F)o3)cc2C1=O` [Example 643], 100%.
For the compound `O=C1c2cc(-c3nnc(C(F)F)o3)cnc2CN1[C@@H]1CC(F)(F)CC[C@H]1NC(=O)C(F)(F)C(F)F` [Example 644, N-((1R,2R)-2-(3-(5-(difluoromethyl)-1,3,4-oxadiazol-2-yl)-5-oxo-5,7-dihydro-6H-pyrrolo[3,4-b]pyridin-6-yl)-4,4-difluorocyclohexyl)-2,2,3,3-tetrafluoropropanamide], the inhibition at 10 µM came out at 99%.
Take `CCN(CC)C(=O)C1CC(F)(F)CCN1N1Cc2ccc(-c3nnc(C(F)F)o3)cc2C1=O` (stereo not shown) [Example 645, 1-(6-(5-(difluoromethyl)-1,3,4-oxadiazol-2-yl)-1-oxo-1,3-dihydro-2H-isoindol-2-yl)-N,N-diethyl-4,4-difluoropiperidine-2-carboxamide]: the inhibition at 10 µM came out at 99%.
On the same count and under the same terms, under `O=C1c2cc(-c3nnc(C(F)F)o3)cnc2CN1[C@@H]1COCC[C@H]1Oc1ccc(F)c(F)c1` [Example 646, 1,5-anhydro-2,4-dideoxy-2-(3-(5-(difluoromethyl)-1,3,4-oxadiazol-2-yl)-5-oxo-5,7-dihydro-6H-pyrrolo[3,4-b]pyridin-6-yl)-3-O-(3,4-difluorophenyl)-threo-pentitol] stands 99%.
The same measure, in the same setting: then `O=C1c2cc(-c3nnc(C(F)F)o3)cnc2CN1[C@@H]1COCC[C@H]1Oc1ccccc1F` [Example 647, 1,5-anhydro-2,4-dideoxy-2-(3-(5-(difluoromethyl)-1,3,4-oxadiazol-2-yl)-5-oxo-5,7-dihydro-6H-pyrrolo[3,4-b]pyridin-6-yl)-3-O-(2-fluorophenyl)-threo-pentitol (optical isomer)], with 100%.
For `O=C1c2cc(-c3nnc(C(F)F)o3)cnc2CN1[C@@H]1COCC[C@H]1Oc1ccc(F)c(F)c1` [Example 649, 1,5-anhydro-2,4-dideoxy-2-(3-(5-(difluoromethyl)-1,3,4-oxadiazol-2-yl)-5-oxo-5,7-dihydro-6H-pyrrolo[3,4-b]pyridin-6-yl)-3-O-(3,4-difluorophenyl)-threo-pentitol (Optical Isomer)], the “HDAC6 inhibitory rate (%) (10 μM)” value stood at 100%.
